Data: publication PMC10892818, “An Antiherpesviral Host-Directed Strategy Based on CDK7 Covalently Binding Drugs: Target-Selective, Picomolar-Dose, Cross-Virus Reactivity” (Pharmaceutics, 2024)
Converted amounts (≈) assume the structure as drawn.

What was measured:
[1] = Plasma protein binding, human; type: in vitro ADME; conditions: read-out: Plasma protein binding (% bound) human (converted)
[2] = Plasma protein binding, mouse; type: in vitro ADME; conditions: read-out: Plasma protein binding (% bound) mouse (converted)
[3] = system: human CDK7–cyclin H–MAT1; set-up: method as in PMID 25624324; conditions: cited from earlier work
[4] = in vivo
Method: Later, this drug served as the parental compound for the generation of novel covalently binding CDK7-directed warheads (Figure 2A, panels a–h). To reveal LDC4297, a chemical library was designed in silico for the targeting of kinases and was applied for screening against human CDK7–cyclin H–MAT1 by the use of in vitro kinase assays. […] In particular, a kinome-wide analysis with 333 individual kinases was performed to assess compound selectivity in vitro.
(A) Chemical linkage of an acceptor for the Michael 1,4 addition reaction was performed to generate QRS compounds 6, 7, and 9. Through the covalent binding of host target CDK7, a block of virus-supportive functions was achieved, and further details on this antiviral strategy were described elsewhere (a,b; c,d, this study, and Yu et al., in preparation; d–f; f–h). (B) Determination of in vitro eADME parameters (early […]-distribution-metabilism-excretion) and pharmacokinetics (PK) parameters, including mean plasma concentrations in vivo (male CD-1® mice).

[5] = molecular target: T1, CDK7–cyclin H–MAT1 (Homo sapiens, UniProt P50613); set-up: method as in PMID 25624324; conditions: kinome-wide panel of 333 kinases; cited from earlier work
T1 construct: purchased Invitrogen PR6749B
T1 sequence (P50613 whole entry): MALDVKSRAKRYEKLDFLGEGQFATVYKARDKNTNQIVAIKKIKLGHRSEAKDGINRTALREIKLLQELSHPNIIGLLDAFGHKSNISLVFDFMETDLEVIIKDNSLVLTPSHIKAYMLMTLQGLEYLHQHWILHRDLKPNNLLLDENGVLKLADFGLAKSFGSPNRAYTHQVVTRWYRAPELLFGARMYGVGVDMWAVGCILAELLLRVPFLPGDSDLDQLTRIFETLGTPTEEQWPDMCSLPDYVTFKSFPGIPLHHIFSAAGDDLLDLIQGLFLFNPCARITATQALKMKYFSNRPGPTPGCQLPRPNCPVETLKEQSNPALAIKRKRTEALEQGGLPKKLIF
T1 sequence (P51946 whole entry partner): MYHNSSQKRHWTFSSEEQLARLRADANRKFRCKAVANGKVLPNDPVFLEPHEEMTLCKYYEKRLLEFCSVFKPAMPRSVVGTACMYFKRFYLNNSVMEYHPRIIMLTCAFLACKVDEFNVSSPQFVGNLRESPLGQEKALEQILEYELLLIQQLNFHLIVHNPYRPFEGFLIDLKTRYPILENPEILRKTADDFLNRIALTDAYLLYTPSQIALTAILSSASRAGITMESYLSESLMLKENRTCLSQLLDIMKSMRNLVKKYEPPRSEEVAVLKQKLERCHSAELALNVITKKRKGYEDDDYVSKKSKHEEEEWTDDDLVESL
T1 sequence (P51948 whole entry partner): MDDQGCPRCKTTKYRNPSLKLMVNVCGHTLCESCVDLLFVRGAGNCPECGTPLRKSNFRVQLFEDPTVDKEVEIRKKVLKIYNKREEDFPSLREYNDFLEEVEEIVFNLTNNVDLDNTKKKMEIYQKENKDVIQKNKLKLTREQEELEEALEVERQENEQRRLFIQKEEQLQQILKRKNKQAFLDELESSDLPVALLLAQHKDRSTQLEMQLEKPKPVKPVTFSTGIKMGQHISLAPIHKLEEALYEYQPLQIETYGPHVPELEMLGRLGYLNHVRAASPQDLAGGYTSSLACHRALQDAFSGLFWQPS

[6] = Solubility (SolRank); type: physicochemical; conditions: pH 7.4
[7] = PAMPA; type: in vitro ADME; conditions: pH 7.4
[8] = system: HCMV AD169-GFP; set-up: method as in PMID 25624324; conditions: read-out: antiviral EC50 value (HCMV); cited from earlier work
[9] = Caco-2 permeability assay; type: in vitro ADME; conditions: human
[10] = type: in vitro ADME
[11] = system: HCMV-encoded vCDK/pUL97; set-up: method as in PMID 37591314; conditions: cited from earlier work
[12] = type: in vitro ADME; remark: listed apart in the source
[13] = male, CD-1, mouse, in vivo, po, 100 mg/kg

CC(C)c1cnn2c(NCc3ccccc3-n3cccn3)nc(OC3CCCNC3)nc12 (centres unmarked) [LDC4297]
fraction unbound [1]: 0.142
fraction unbound [2]: 0.0951
IC50 [3]: < 5 nM
AUC(0-inf) [4, 13]: 3620 ng·h/mL
AUC(0-t) [4, 13]: 3520 ng·h/mL
Cmax [4, 13]: 1300 ng/mL
Tmax [4, 13]: 0.5 h
bioavailability [4, 13]: 97.7%
half-life [4, 13]: 1.6 h
tz [4, 13]: 8 h
concentration at 8 h ([4]; male, CD-1, mouse, in vivo, po, 100 mg/kg, Cz, mouse 100 mg/kg p.o.): 43.2 ng/mL
concentration at 0 min ([4]; male, CD-1, mouse, in vivo, po, 100 mg/kg, Mean plasma concentration, mouse 100 mg/kg p.o., sampling time 0 min): 0 ng/mL
concentration at 30 min ([4]; male, CD-1, mouse, in vivo, po, 100 mg/kg, Mean plasma concentration, mouse 100 mg/kg p.o., sampling time 30 min): > 1200 ng/mL
concentration at 90 min ([4]; male, CD-1, mouse, in vivo, po, 100 mg/kg, Mean plasma concentration, mouse 100 mg/kg p.o., sampling time 90 min): 713 ± 411 ng/mL
concentration at 240 min ([4]; male, CD-1, mouse, in vivo, po, 100 mg/kg, Mean plasma concentration, mouse 100 mg/kg p.o., sampling time 240 min): 373 ± 108 ng/mL
concentration at 480 min ([4]; male, CD-1, mouse, in vivo, po, 100 mg/kg, Mean plasma concentration, mouse 100 mg/kg p.o., sampling time 480 min): 43.2 ± 44 ng/mL
Mean plasma concentration ([4]; mouse 100 mg/kg p.o., sampling time 30 min): 1297.6 ± 678.0 ng/mL
residual activity in the presence of LDC4297 [5]: 2%
solubility [6]: 373 µM (≈ 162 µg/mL)
PAMPA (% Flux) [7]: 76.25 % Flux
EC50 [8]: 24.5 ± 1.3 nM
Papp A→B ([9]; A→B): 15.4 ×10⁻⁶ cm/s
efflux ratio ([9]; efflux ratio, read-out: Caco-2 permeability B→A / A→B): 1.57
Plasma stability (% remain) mouse [10]: 100.0 % remain
secondary targeting activity against vCDK/pUL97 [11]: lack of a secondary targeting activity
Plasma stability (% remain) human [12]: 91.6 % remain
